Source: ChEMBL document CHEMBL3112431, “Constrained TRPV1 agonists synthesized via silver-mediated intramolecular azo-methine ylide cycloaddition of α-iminoamides” (Bioorg Med Chem Lett, 2014)
The source made the active and inactive calls. The calls are words filed in the database; no cut-off is given here.

How the values were obtained:
[1] = biological target: Transient receptor potential cation channel subfamily V member 1 (Rattus norvegicus) (UniProt O35433); assay: Partial agonist activity at TRPV1 in rat dorsal root ganglia neurons by 45Ca2+ uptake assay
[2] = biological target: Transient receptor potential cation channel subfamily V member 1 (Rattus norvegicus) (UniProt O35433); assay: Agonist activity at TRPV1 in rat dorsal root ganglia neurons by 45Ca2+ uptake assay

Sequence of Transient receptor potential cation channel subfamily V member 1 (Rattus norvegicus) (O35433 whole entry): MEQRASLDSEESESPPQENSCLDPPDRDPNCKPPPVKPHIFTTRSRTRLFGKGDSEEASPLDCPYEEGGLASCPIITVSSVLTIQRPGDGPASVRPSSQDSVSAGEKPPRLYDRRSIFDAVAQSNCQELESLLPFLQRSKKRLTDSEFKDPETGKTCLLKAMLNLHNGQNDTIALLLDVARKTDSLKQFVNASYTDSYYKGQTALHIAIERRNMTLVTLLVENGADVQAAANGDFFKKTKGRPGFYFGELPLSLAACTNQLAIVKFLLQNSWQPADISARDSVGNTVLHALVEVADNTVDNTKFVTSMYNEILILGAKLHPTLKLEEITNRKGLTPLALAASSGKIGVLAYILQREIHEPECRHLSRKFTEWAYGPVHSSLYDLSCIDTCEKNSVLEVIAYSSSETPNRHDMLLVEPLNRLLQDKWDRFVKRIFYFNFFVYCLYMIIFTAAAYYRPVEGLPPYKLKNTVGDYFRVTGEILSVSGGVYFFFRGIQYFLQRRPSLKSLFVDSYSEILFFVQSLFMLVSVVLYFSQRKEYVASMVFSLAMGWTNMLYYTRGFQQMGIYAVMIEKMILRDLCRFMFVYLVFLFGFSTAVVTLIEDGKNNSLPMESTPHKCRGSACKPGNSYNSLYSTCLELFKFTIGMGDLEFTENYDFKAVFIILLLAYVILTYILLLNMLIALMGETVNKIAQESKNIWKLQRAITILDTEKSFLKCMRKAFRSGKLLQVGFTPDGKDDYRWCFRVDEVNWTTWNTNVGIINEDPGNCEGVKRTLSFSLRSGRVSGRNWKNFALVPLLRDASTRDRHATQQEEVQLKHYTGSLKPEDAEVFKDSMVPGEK

Structure (SMILES)	Activity [1]	Activity [2]
CCOC(=O)[C@@H]1[C@H]2COc3ccc(F)cc3[C@@H]2N[C@]1(C)C(=O)Nc1cc(C)ccc1C(=O)OC	Active	–
CCOC(=O)[C@@H]1[C@H]2COc3ccc(Cl)cc3[C@@H]2N[C@]1(C)C(=O)Nc1cc(C)ccc1C(=O)OC	Active	–
COc1cc(CNC(=O)CCCC/C=C/C(C)C)ccc1O	–	Active
CCOC(=O)[C@@H]1[C@H]2COc3ccc(OC)cc3[C@@H]2N[C@]1(C)C(=O)Nc1cc(C)ccc1C(=O)OC	Active	–
CCOC(=O)[C@H]1[C@H]2COc3ccc(Cl)cc3[C@@H]2N2C(=O)c3ccc(C)cc3NC(=O)[C@@]12C	–	Active
CCOC(=O)[C@@H]1[C@H]2COc3c(F)cccc3[C@@H]2N[C@]1(C)C(=O)Nc1cc(C)ccc1C(=O)OC	Active	–
